Active and inactive are the calls of the source. Some results are limits rather than exact numbers.

Here are results for 17 molecules from ChEMBL document CHEMBL1201862, “PubChem BioAssay data set” (2004).

In experiment [1] the target is T1, Methionyl-tRNA synthetase, putative (Trypanosoma brucei brucei, UniProt Q38C91).
T1 sequence (Q38C91 whole entry): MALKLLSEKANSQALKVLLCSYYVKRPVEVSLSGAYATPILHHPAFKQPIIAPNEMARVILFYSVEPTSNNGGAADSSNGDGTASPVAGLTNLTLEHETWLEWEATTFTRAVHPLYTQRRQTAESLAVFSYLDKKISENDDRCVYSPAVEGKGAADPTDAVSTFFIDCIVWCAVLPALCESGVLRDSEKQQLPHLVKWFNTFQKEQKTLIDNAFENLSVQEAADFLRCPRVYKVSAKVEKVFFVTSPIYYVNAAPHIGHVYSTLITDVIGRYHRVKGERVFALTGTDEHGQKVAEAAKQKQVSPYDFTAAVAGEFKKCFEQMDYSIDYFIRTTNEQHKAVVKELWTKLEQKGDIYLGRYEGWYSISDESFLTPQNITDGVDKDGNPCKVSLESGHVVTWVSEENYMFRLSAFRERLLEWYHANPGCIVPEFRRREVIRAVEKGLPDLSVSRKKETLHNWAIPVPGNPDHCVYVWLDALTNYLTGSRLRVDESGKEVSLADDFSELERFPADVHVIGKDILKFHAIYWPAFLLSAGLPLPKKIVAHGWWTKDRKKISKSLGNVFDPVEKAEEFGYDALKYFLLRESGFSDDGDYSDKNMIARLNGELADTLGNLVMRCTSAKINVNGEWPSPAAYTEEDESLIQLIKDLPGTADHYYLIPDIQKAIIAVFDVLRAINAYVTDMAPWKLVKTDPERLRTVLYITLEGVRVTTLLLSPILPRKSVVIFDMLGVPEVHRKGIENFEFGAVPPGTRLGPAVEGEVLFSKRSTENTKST
It counts as functional, Trypanosoma brucei brucei strain 927/4 GUTat10.1.

Experiment [2] addresses T1, Methionyl-tRNA synthetase, putative. It counts as functional, Trypanosoma brucei brucei strain 927/4 GUTat10.1. The source holds these as a separate data set.
Experiment [3] can be described thus: Counterscreen for inhibitors of Trypanosoma brucei methionyl tRNA synthetase (MetRS): Luminescence-based cell-based high throughput dose response assay to identify compounds that are cytotoxic to Jurkat human T lymphocyte cells. It counts as functional. Background: The purpose of a counterscreen is to sort out artefacts and off-target activity.
Experiment [4] in a line: miR-122 activators in hepatoma reporter cells, dose response, cell-based, Huh7 psiCHECK-miR122, Renilla luciferase, cherry-picked (AID 651956).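 Also: huh7 hepatoma cells stably carrying a psiCHECK-2 miR-122 sensor plasmid; renilla luciferase signal reporting endogenous miR-122 activity after 48 h compound exposure.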 The format is functional.
Experiment [5] addresses T2, Fructose-bisphosphate aldolase (Mycobacterium tuberculosis, UniProt P9WQA3).
T2 sequence (P9WQA3 whole entry): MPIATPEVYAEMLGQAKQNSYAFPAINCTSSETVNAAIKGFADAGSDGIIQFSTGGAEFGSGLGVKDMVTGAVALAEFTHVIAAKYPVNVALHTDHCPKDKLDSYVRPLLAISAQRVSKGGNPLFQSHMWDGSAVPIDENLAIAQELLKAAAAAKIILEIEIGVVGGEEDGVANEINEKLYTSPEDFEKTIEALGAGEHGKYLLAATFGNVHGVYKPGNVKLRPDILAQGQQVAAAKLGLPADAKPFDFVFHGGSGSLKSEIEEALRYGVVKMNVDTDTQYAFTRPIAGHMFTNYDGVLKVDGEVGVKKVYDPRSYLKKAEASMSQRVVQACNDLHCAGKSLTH
The experiment in a line: Fluorescence-based biochemical high throughput dose response assay for inhibitors of the fructose-bisphosphate aldolase (FBA) of M. tuberculosis. It counts as functional.

Experiment [6] is described as follows: intracellular Trypanosoma cruzi inhibitors in host cells – cell-based, plate reader, cherry-pick samples, set 3, dose response (AID 651818).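 Also: compounds incubated with infected cells for about four days.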 It counts as functional.
A short description of experiment [7]: Luminescence Cell-Based Dose Retest to Confirm Inhibitors of Cancer Stem Cells. [Related pubchem assays (depositor defined):AID2717, AID2721]. It counts as functional. The note with it: Homo sapiens.
Another experiment concerns the target Paired box protein Pax-8 (Homo sapiens, UniProt Q06710). Briefly: inhibitors of PAX8-driven TPO luciferase reporter, dose response, RMG-I cells, cherry-pick (AID 687027).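 Also: luciferase reporter driven by Pax8 target thyroperoxidase promoter measured by SteadyGlo luminescence.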 It counts as functional, cell-based.
The next experiment addresses Steroidogenic factor 1 (Homo sapiens, UniProt Q13285). The experiment in a line: Counterscreen for inverse agonists of the liver receptor homolog-1 (LRH-1; NR5A2): Luminescence-based cell-based high throughput dose response assay to identify inverse agonists of the Steroidogenic Factor 1 Nuclear Receptor (SF1; NR5A1). It counts as functional.
The nature of experiment [8]: StAR promoter reporter inhibition counter-screen, dose response, counter-screen for LRH-1 inverse agonist project, cell-based, luminescence, luciferase reporter (AID 651969). The format is functional.
For experiment [9], the target named is Nuclear receptor subfamily 5 group A member 2 (Homo sapiens, UniProt O00482). The format is functional, cell-based.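 Also: HEK293T cells transfected with LRH-1 and a StAR promoter luciferase reporter; potency for inhibitors that lower LRH-1 driven reporter light.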
Experiment [10] in a line: HEK293T cytotoxicity, dose response, cytotoxicity control for miR-122 modulator project, cell-based, inhibitor set, cherry-pick, set 2 (AID 720697). The format is functional.
The next experiment addresses T3, Protein skinhead-1 (Caenorhabditis elegans, UniProt P34707).
T3 sequence (P34707 whole entry): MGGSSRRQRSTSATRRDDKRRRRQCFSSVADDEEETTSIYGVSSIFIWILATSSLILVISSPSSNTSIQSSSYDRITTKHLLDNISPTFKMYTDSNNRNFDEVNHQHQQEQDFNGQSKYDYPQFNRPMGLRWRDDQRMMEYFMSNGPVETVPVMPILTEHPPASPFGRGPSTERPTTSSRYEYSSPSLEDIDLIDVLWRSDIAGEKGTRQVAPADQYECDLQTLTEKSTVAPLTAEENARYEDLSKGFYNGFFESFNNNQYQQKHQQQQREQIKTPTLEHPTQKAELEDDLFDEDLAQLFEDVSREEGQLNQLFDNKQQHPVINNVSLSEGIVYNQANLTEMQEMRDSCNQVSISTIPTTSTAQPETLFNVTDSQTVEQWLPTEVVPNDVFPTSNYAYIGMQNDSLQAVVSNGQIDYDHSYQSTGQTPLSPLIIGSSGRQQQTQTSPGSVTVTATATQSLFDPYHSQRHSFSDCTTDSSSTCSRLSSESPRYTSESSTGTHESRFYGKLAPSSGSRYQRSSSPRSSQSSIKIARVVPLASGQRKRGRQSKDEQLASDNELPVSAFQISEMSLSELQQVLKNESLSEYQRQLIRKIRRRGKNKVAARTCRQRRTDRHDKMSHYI
It counts as functional.

For experiment [11], the target named is T4, Oxysterols receptor LXR-beta (Homo sapiens, UniProt P55055).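 Also: agonist activity at LXR measured by a cell-based luminescence readout across a dose range, run as a counterscreen for daf-12 agonists; HEK293 cells with Gal4-LXR fusion and GAL4-driven luciferase reporter; potency for activation of Gal4-LXR reporter so compounds are agonists.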
T4 sequence (P55055 whole entry): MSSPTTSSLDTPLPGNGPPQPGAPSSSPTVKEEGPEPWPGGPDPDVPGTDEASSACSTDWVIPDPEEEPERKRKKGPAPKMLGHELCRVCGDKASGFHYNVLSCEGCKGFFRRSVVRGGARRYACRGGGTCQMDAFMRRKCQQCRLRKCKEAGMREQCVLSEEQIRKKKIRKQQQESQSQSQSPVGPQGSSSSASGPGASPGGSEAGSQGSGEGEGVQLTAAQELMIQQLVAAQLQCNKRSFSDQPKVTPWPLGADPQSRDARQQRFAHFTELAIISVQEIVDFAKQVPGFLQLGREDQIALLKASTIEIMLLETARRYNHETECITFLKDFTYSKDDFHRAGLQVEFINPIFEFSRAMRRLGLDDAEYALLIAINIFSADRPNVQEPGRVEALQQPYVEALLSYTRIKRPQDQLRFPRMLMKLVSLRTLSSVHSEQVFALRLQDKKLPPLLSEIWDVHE
It counts as functional, cell-based.

Experiment [12] in a line: Luminescence-based cell-based high throughput dose response assay to identify activators of the DAF-12 from the parasite S. stercoralis (ssDAF-12). The format is functional.
Experiment [13] is described as follows: cells. It counts as functional, cell-based.
Experiment [14] can be described thus: cells. It counts as functional, cell-based. The source holds these as a separate data set.
Experiment [15] is described as follows: A549 cell cytotoxicity, dose response, cytotoxicity control, plate reader, cherry-pick, antagonist series (AID 743412). The format is functional, cell-based.
Experiment [16] in a line: LGR2 antagonists, dose response, cell-based, HEK293, CRE-luciferase reporter, cherry pick, set 2 (AID 743343).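 Also: transfected cells were stimulated with diluted bursicon conditioned medium after compound addition.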 It counts as functional. (In general: Reporter assays use an easily measured gene product as a stand-in for the process of interest.)
Experiment [17] can be described thus: MC4R antagonists, dose response, counter-screen for LGR2 antagonist project, cell-based, plate reader, cherry pick (AID 743444).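 Also: transfected HEK 293 cells stimulated with alpha-MSH peptide; potency of inhibitors of the alpha-MSH evoked signal.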 The format is functional.

Sequence of Nuclear receptor subfamily 5 group A member 2 (O00482 whole entry): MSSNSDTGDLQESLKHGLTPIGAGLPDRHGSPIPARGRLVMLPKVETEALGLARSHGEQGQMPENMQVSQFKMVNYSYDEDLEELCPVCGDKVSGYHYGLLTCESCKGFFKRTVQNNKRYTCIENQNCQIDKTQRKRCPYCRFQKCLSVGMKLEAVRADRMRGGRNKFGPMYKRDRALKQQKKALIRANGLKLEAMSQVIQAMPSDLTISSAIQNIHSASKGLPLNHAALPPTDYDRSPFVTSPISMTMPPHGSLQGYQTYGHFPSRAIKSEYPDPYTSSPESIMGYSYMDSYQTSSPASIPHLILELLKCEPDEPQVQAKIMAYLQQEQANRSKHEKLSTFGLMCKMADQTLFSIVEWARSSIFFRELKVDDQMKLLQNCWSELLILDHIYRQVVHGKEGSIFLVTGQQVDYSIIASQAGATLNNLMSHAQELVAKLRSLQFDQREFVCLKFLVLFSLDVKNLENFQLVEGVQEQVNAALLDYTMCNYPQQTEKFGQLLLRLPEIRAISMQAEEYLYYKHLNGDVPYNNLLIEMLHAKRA
Sequence of Steroidogenic factor 1 (Q13285 whole entry): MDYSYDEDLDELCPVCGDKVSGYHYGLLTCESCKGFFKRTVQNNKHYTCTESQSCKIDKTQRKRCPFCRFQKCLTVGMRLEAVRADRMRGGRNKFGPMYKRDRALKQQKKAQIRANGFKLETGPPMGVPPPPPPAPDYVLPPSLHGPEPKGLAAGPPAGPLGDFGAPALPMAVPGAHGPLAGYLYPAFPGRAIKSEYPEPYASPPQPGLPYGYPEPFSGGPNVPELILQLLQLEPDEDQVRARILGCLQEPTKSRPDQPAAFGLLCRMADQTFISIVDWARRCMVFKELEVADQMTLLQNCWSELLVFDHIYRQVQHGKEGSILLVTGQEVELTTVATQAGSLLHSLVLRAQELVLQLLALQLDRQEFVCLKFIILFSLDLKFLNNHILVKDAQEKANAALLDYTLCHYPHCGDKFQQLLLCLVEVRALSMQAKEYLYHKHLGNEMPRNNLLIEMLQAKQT
Sequence of Paired box protein Pax-8 (Q06710 whole entry): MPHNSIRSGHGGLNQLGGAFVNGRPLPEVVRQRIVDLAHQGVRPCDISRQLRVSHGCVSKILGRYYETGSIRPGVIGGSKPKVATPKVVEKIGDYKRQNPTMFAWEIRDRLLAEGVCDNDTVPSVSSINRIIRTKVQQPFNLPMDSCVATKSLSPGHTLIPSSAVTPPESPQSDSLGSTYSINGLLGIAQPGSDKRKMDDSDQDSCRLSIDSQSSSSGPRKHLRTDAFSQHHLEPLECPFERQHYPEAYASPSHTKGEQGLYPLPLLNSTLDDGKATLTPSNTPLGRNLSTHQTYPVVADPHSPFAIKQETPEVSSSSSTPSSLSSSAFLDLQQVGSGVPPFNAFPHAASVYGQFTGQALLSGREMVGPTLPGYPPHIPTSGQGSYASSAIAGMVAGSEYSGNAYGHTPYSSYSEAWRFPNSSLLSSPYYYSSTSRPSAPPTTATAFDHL

In the case of `OC(c1cccc(Cl)c1)c1nc(-c2ccc3ccccc3c2)c[nH]1` (centres undefined), the IC50 (in general, the point on the concentration scale where inhibition reaches its midpoint) in experiment [1] was 5.6 µM (active); in experiment [2], 14.2 µM (inactive); in experiment [3], 83.3 µM (inactive).

Consider `Cc1cccc(NC(=O)Nc2ccc3c(c2)C(=O)N(C)[C@@H]2CC[C@@H](CC(=O)NCc4ccccc4Cl)O[C@H]2CO3)c1`, for which the AC50 (usually the concentration at which the activity in the assay is half-maximal) in [4] is 3.32 µM (active).

On to `COc1ccc2oc(=N)c(-c3nnc4n3CCCCC4)cc2c1`, for which the IC50 in [5] is 4.68 µM (active).

As for `C[C@@H]1CN([C@@H](C)CO)C(=O)Cc2cc(NC(=O)Nc3ccc(C(F)(F)F)cc3)ccc2O[C@@H]1CN(C)S(=O)(=O)c1ccc(Cl)cc1`, the AC50 in experiment [6] is 3.51 µM (active); in experiment [7], 1.28 µM (active); at Paired box protein Pax-8, 10.3 µM (active).

As to `CCCN(CC(=O)Nc1ccc(C(N)=O)cc1)CC(=O)Nc1ccccc1C`, the results for the IC50 (at Steroidogenic factor 1; in [8]; in experiment [9]) were 2.88 µM (active), 24.9 µM (inactive) and 5.11 µM (active), respectively.

Consider `CCOc1ccc(NC(=O)COC(=O)C2CCC(=O)N2)c([N+](=O)[O-])c1` (centres undefined), for which the IC50 (at Steroidogenic factor 1; in [8]; in experiment [9]) was 35.8 µM (inactive) each time.

`COc1ccc(CNCCC(c2ccc(OC)cc2)c2ccccc2OC)cc1` (centres undefined): the AC50 in [10] was 3.94 µM (active). Further, the IC50 on Protein skinhead-1 was > 100 µM (inactive).

With `Cc1ccc(SCCSc2ncccn2)cc1`, in experiment [11], the EC50 (usually the concentration needed to bring the measured effect to its halfway point) is > 67.5 µM (inactive).

`CC(=O)c1ccc2c3c(cccc13)C(=O)N(CCc1ccccc1)C2=O`: the IC50 was > 67.5 µM (inactive) in [12] and > 29.9 µM (inactive) in the experiment “cells [13]”. In “cells [14]”, the EC50 is > 29.9 µM (inactive).

`Cc1no[n+]([O-])c1COc1ccc(/C=N/n2nnnc2N)cc1`: the IC50 at Steroidogenic factor 1 is 12 µM (inactive); in experiment [8], 35.9 µM (inactive); in experiment [9], 35.9 µM (inactive).

Take `COc1ccc2c(c1)cc(C(=O)N[C@@H](Cc1ccccc1)C(=O)N[C@@H](C)C(=O)O)n2C`: in experiment [5], the IC50 was 1.29 µM (active).

Turning to `Cc1noc(C)c1NC(=O)N(C)C[C@@H]1Oc2cc(C#CCC3CCCC3)ccc2S(=O)(=O)N([C@@H](C)CO)C[C@@H]1C`, the AC50 in experiment [4] was 18.9 µM (active).

`COc1ccc(-c2cc(C(=O)Nc3cccc(O)c3)no2)cc1`: the figures for the AC50 in [15], in experiment [16] and in experiment [17] were > 52 µM (inactive), 9.77 µM (active) and 7.86 µM (active), respectively.

With `CN(C(=O)CSc1nc2cc(Cl)ccc2[nH]1)C1CCS(=O)(=O)C1` (centres undefined), the IC50 in experiment [3] was 83.2 µM (inactive).

Consider `COc1ccccc1CCNCc1cc2c(cc1[N+](=O)[O-])OCO2`, for which the IC50 in the experiment “cells [13]” is > 29.9 µM (inactive). For the same molecule, the EC50 in “cells [14]” is > 29.9 µM (inactive).

For `Cc1cc(OCC(=O)NCC(O)c2ccccc2)c2c(C)cc(=O)oc2c1` (centres undefined), the IC50 in experiment [5] is 1.26 µM (active).

Turning to `CN(C(=O)CSc1nc2ccc(Cl)cc2[nH]1)C1CCS(=O)(=O)C1` (centres undefined), the IC50 in [1] is 21.7 µM (inactive); in experiment [2], 64.5 µM (inactive).
